Experimental data: patent publication US20220087987A1, “A METHOD FOR TREATING SWI/SNF COMPLEX-DEFICIENT CANCERS COMPRISING GLUTATHIONE (GSH) METABOLIC PATHWAY INHIBITOR” (National Cancer Center, priority 2018, published 2022)
Counter-ions that a name gives are not always drawn. Like-named read-outs stand apart in the source and are kept apart here. Peptide text beside a SMILES is read from it. * marks the point of attachment. Cbz = O=C(OCc1ccccc1)*; CH2Cl = ClC*; CH2F = FC*

Experiments:
Assay type in all cases: cell-based, human
[1] = Drug library screen, cell viability (CellTiter-Glo); design: key to Cell viability, WT: % viability relative to DMSO solvent-treated cells; settings: human; HCT116 ARID1A-WT; 10 μM for 5 days; relative to cells treated with solvent (DMSO); read-out: Cell viability, WT
Protocol: (§1) ARID1A-WT and ARID1A-KO HCT116 cancer cells were used for screening assays. […] Cell viability was assessed after 5 days using the CellTiter-Glo Luminescent Cell Viability Assay (Promega). Luminescence was measured using an Envision Multi-label plate reader (PerkinElmer). The luminescence reading was used to determine the cell viability relative to that of cells treated with solvent (DMSO). Candidate compounds were considered if viability of ARID1A-KO cells was less than […] was more than 80%.

ARID1A-KO HCT116 cells = assay: as above; design: key to Cell viability, KO: % viability relative to DMSO solvent-treated cells; settings: for viability at 10 µM: Homo sapiens, HCT-116, 120 h, read-out: Cell viability, KO
Protocol: as §1

ARID1A-WT HCT116 cells = assay: as above; design: key to Cell viability, WT: % viability relative to DMSO solvent-treated cells
Protocol: as §1

[2] = HCT116 ARID1A-KO, 10 μM for 5 days, relative to cells treated with solvent (DMSO)
[3] = HCT116 ARID1A-WT, 10 μM for 5 days, relative to cells treated with solvent (DMSO)

Row | Compound | Cell viability, WT (ARID1A-WT HCT116 cells; [3]) | Cell viability, KO (ARID1A-KO HCT116 cells; [2]) | also measured
1 | C[C@H]1O[C@@H](n2cnc3c(N)ncnc32)C[C@@H]1O [2′,5′-dideoxyadenosine] | – | – | viability [1]: 198%; viability at 10 µM (ARID1A-KO HCT116 cells; [2]): 172%
2 | Cc1ncc2ccccc2c1C#N [4-cyano-3-methylisoquinoline] | – | – | viability at 5 days, 10 μM [1]: 143%; viability at 10 µM (ARID1A-KO HCT116 cells; [2]): 164%
3 | CNc1ccc2oc(C[C@H]3O[C@@]4(CC[C@H]3C)O[C@H]([C@H](C)C(=O)c3ccc[nH]3)[C@H](C)C[C@H]4C)nc2c1C(=O)O [A23187] | – | – | viability [1]: 6.25%; viability at 10 µM (ARID1A-KO HCT116 cells; [2]): 8.67%
4 | CN(C)CC[C@H](CSc1ccccc1)Nc1ccc(S(=O)(=O)NC(=O)c2ccc(N3CCN(Cc4ccccc4-c4ccc(Cl)cc4)CC3)cc2)cc1[N+](=O)[O-] [ABT-737] | – | – | viability at 5 days, 10 μM [1]: 94.4%; viability at 10 µM (ARID1A-KO HCT116 cells; [2]): 89.5%
5 | C[C@]1(c2nc3c(C(N)=O)cccc3[nH]2)CCCN1 [ABT-888 (Veliparib), Veliparib] | – | – | viability at 5 days, 10 μM [1]: 62.7%; viability at 10 µM (ARID1A-KO HCT116 cells; [2]): 53.3%
6 | CNCc1ccc(-c2[nH]c3cc(F)cc4c3c2CCNC4=O)cc1 [AG014699 (Rucaparib), Rucaparib] | – | – | viability at 5 days, 10 μM [1]: 18.7%; viability at 10 µM (ARID1A-KO HCT116 cells; [2]): 16%
7 | CC[C@@]1(O)C[C@H](O[C@H]2C[C@H](N(C)C)[C@H](O[C@H]3C[C@H](O)[C@H](O[C@H]4CCC(=O)[C@H](C)O4)[C@H](C)O3)[C@H](C)O2)c2c(cc3c(c2O)C(=O)c2c(O)cccc2C3=O)[C@H]1C(=O)OC [Aclarubicin] | – | – | viability [1]: 4.48%; viability at 10 µM (ARID1A-KO HCT116 cells; [2]): 5.53%
8 | CCCCC[C@H](CC(=O)NO)C(=O)N[C@H](C(=O)N1CCC[C@H]1CO)C(C)C [Actinonin] | – | – | viability at 5 days, 10 μM [1]: 88.5%; viability at 10 µM (ARID1A-KO HCT116 cells; [2]): 103%
9 | CC(C)C[C@@H](N)[C@H](O)C(=O)N[C@H](C(=O)N[C@H](C(=O)N[C@@H](CC(=O)O)C(=O)O)C(C)C)C(C)C [Amastatin] | – | – | viability at 5 days, 10 μM [1]: 102%; viability at 10 µM (ARID1A-KO HCT116 cells; [2]): 110%
10 | N=C(N)NC(=O)c1nc(Cl)c(N)nc1N [Amiloride] | – | – | viability at 5 days, 10 μM [1]: 106%; viability at 10 µM (ARID1A-KO HCT116 cells; [2]): 113%
11 | CCC1(c2ccc(N)cc2)CCC(=O)NC1=O (stereo not drawn) [Aminoglutethimide] | – | – | viability at 5 days, 10 μM [1]: 108%; viability at 10 µM (ARID1A-KO HCT116 cells; [2]): 107%
12 | N=C(N)NN [Aminoguanidine, HCl] | – | – | viability at 5 days, 10 μM [1]: 188%; viability at 10 µM (ARID1A-KO HCT116 cells; [2]): 128%
13 | C[C@@]1(CO)[C@H](O)CC[C@@]2(C)[C@H]1CC[C@H]1C[C@@H]3C[C@@]12CC[C@]3(O)CO [Aphidicolin] | – | – | viability at 5 days, 10 μM [1]: 14%; viability at 10 µM (ARID1A-KO HCT116 cells; [2]): 11.9%
14 | CNC(=O)c1ccccc1Sc1ccc2c(/C=C/c3ccccn3)n[nH]c2c1 [Axitinib] | – | – | viability at 5 days, 10 μM [1]: 36.4%; viability at 10 µM (ARID1A-KO HCT116 cells; [2]): 42.6%
15 | COc1cc2nc(N3CCCN(C)CC3)nc(NC3CCN(Cc4ccccc4)CC3)c2cc1OC [BIX01294] | – | – | viability at 5 days, 10 μM [1]: 2.57%; viability at 10 µM (ARID1A-KO HCT116 cells; [2]): 4.49%
16 | Cc1ccc2nc(NCCN)c3ncc(C)n3c2c1 [BMS-345541] | – | – | viability at 5 days, 10 μM [1]: 11.9%; viability at 10 µM (ARID1A-KO HCT116 cells; [2]): 19.7%
17 | NC(=O)c1ccc(I)c([N+](=O)[O-])c1 [BSI-201 (Iniparib), Iniparib] | – | – | viability at 5 days, 10 μM [1]: 63.5%; viability at 10 µM (ARID1A-KO HCT116 cells; [2]): 93.3%
18 | C[S+]([O-])c1ccc(-c2nc(-c3ccc(F)cc3)c(-c3ccncc3)[nH]2)cc1 (stereo not drawn) [SB 203580] | 163.1226 | 176.0802 | –
19 | O=C1NC(=O)c2c1c1c3ccccc3n3c1c1c2c2ccccc2n1C1CCC3O1 [SB 218078] | 101.994 | 109.2807 | –
20 | O=C(Nc1ccc([N+](=O)[O-])cc1O)Nc1ccccc1Br [SB 225002] | 5.2146 | 8.056 | –

Row | Compound | Cell viability, WT (ARID1A-WT HCT116 cells; [3]) | Cell viability, KO (ARID1A-KO HCT116 cells; [2]) | also measured
21 | COC(=O)[C@H](Cc1ccc([N+](=O)[O-])cc1)NC(=O)c1cccc2ccccc12 [SB 328437] | 104.1947 | 112.6489 | –
22 | NC(=O)c1ccc(-c2nc(-c3ccccn3)c(-c3ccc4c(c3)OCO4)[nH]2)cc1 [SB 431542] | 85.04 | 85.02 | –
23 | Fc1ccc(Cl)cc1-c1nc(Nc2ccncc2)c2nccnc2n1 [SD208] | 73.72 | 78.9 | –
24 | NC(=O)C1CCCc2c1[nH]c1ccc(Cl)cc21 (stereo not drawn) [SIRT1 inhibitor III] | 92.15 | 98.94 | –
25 | CC(C)c1cc(/C=C(\C#N)C(=O)NCCCc2ccccc2)cc(C(C)C)c1O [SU1498] | 165.2374 | 119.3751 | –
26 | O=CN1CCN(c2ccc(/C=C3\C(=O)Nc4ccccc43)cc2)CC1 [SU4984] | 129.369 | 172.2779 | –
27 | Cc1c[nH]c(/C=C2\C(=O)Nc3ccccc32)c1CCC(=O)O [SU5402] | 110.6763 | 139.2404 | –
28 | CN(C)S(=O)(=O)c1ccc2c(c1)/C(=C/c1cc3c([nH]1)CCCC3)C(=O)N2 [SU6656] | – | – | Cell viability, WT (ARID1A-WT HCT116 cells): 124.1846; Cell viability, KO (ARID1A-KO HCT116 cells): 170.9958
29 | Cc1[nH]c(/C=C2\C(=O)Nc3ccc(S(=O)(=O)N(C)c4cccc(Cl)c4)cc32)c(C)c1C(=O)N1CCN(C)CC1 [SU11274] | 71.94 | 82.98 | –
30 | CCN(CC)CCNC(=O)c1c(C)[nH]c(/C=C2\C(=O)Nc3ccc(Cl)cc32)c1C [SU11652] | 4.735 | 8.987 | –
31 | Cn1cc(/C=C2\C(=O)Nc3ccc(S(N)(=O)=O)cc32)c2ccccc21 [Syk inhibitor] | – | – | Cell viability, WT (ARID1A-WT HCT116 cells): 58.62; Cell viability, KO (ARID1A-KO HCT116 cells): 91.09
32 | Brc1c(Br)c(Br)c2n[nH]nc2c1Br [TBB] | 187.1148 | 147.5332 | –
33 | CCN1/C(=C/C(C)=O)Sc2ccc(OC)cc21 [TG003] | 115.1966 | 138.6968 | –
34 | Cc1cccc(-c2[nH]ncc2-c2ccc3ncccc3n2)n1 [TGF-b RI kinase inhibitor II] | 90.9 | 104.5326 | –
35 | C[n+]1ccc(-c2c3nc(c(-c4cc[n+](C)cc4)c4ccc([nH]4)c(-c4cc[n+](C)cc4)c4ccc([nH]4)c(-c4cc[n+](C)cc4)c4nc2C=C4)C=C3)cc1 [TMPyP4] | 19.35 | 32.37 | –
36 | CCCCCCCCCCCCCCOc1ccc(C(=O)O)o1 [TOFA] | 75.72 | 74.56 | –
37 | Nc1cccc(-c2cc3c(Oc4cccc(O)c4)ncnc3[nH]2)c1 [TWS119] | – | – | Cell viability, WT (ARID1A-WT HCT116 cells): 30.07; Cell viability, KO (ARID1A-KO HCT116 cells): 23.39
38 | Cc1cc(C=C2C(=O)C=CC2=O)cc(C)c1O [TX-1918] | 117.0659 | 173.7673 | –
39 | CN(C)CCCCC(=O)Nc1ccc(NC(=S)NC(=O)c2ccc(C(C)(C)C)cc2)cc1 [Tenovin-6] | 2.514 | 5.579 | –
40 | O=C(NCc1ccccc1)c1csc(Nc2ccncn2)n1 [Thiazovivin] | 50.22 | 30.49 | –

Row | Compound | Cell viability, WT (ARID1A-WT HCT116 cells; [3]) | Cell viability, KO (ARID1A-KO HCT116 cells; [2]) | also measured
41 | CC(C)n1nc(-c2cc3cc(O)ccc3[nH]2)c2c(N)ncnc21 [Torkinib] | 8.777 | 9.988 | –
42 | CC(/C=C/C(=O)NO)=C\[C@@H](C)C(=O)c1ccc(N(C)C)cc1 [Trichostatin A] | 6.352 | 5 | –
43 | CCOC(=O)c1c(C)[nH]c(/C=C2\C(=O)Nc3ccccc32)c1C [VEGF recptor 2 kinase inhibitor I] | 106.2493 | 109.4563 | –
44 | CC(C)C[C@H](NC(=O)CNC(=O)OCc1ccccc1)C(=O)N[C@@H](Cc1ccccc1)C(=O)CCl [Z-GLF-CMK] (Cbz-Gly-Leu-Phe-CH2Cl) | 4.255 | 4.8907 | –
45 | COC(=O)C[C@H](NC(=O)[C@H](C)NC(=O)[C@@H](NC(=O)OCc1ccccc1)C(C)C)C(=O)CF [Z-VAD-FMK] (Cbz-Val-Ala-Asp(OMe)-CH2F) | 177.3841 | 128.7264 | –
46 | Cc1ccc(NC(=O)c2cccc(N(C)C)c2)cc1NC(=O)c1ccc(O)cc1 [ZM 336372] | 121.6939 | 179.4192 | –
47 | C[C@H]1CCC/C=C/[C@@H]2C[C@H](O)C[C@H]2[C@H](O)/C=C/C(=O)O1 [brefeldin A] | 1.838 | 4.578 | –
48 | c1cc(-c2cnn3cc(-c4ccc(OCCN5CCCCC5)cc4)cnc23)ccn1 [compound C] | 6.447 | 9.381 | –
49 | Akt Inhibitor IV | 3.276 | 5.523 | –
50 | Antimycin A1 | 4.328 | 7.111 | –
51 | Bleomycin sulfate | 27.28 | 30.2 | –
52 | Cytostatin | 10.14 | 7.493 | –
53 | GSK-3 inhibitor IX | 105.4779 | 147.7846 | –
54 | MEK inhibitor I | 77.6 | 117.4589 | –
55 | Tamoxifen, citrate | 24.8 | 18.66 | –
56 | Tunicamycin | 4.6969 | 6.011 | –
57 | Valeryl salicylate | 169.5428 | 118.3391 | –
58 | a-Amanitin | 8.977 | 10.21 | –
59 | b-Rubromycin | 88.7 | 93.87 | –
60 | indirubin-3′-monoxime | 105.9954 | 124.9767 | –
